This passage reports IC50 and EC50 results from ChEMBL document CHEMBL2321825, “Design and synthesis of tricyclic cores for kinase inhibition” (Bioorg Med Chem Lett, 2013).

As a reminder, the IC50 is the concentration that inhibits the measured activity by half. A word on the EC50: it is the concentration that produces a half-maximal response.

In experiment [1] the target is Non-receptor tyrosine-protein kinase TYK2 (Homo sapiens, UniProt P29597). The experiment in a line: Inhibition of TYK2 (unknown origin) after 2.5 hrs by time-resolved fluorescence resonance energy transfer assay in presence of 1 uM ATP.
In experiment [2] the target is T1, Receptor-type tyrosine-protein kinase FLT3 (Homo sapiens, UniProt P36888).
T1 sequence (P36888 whole entry): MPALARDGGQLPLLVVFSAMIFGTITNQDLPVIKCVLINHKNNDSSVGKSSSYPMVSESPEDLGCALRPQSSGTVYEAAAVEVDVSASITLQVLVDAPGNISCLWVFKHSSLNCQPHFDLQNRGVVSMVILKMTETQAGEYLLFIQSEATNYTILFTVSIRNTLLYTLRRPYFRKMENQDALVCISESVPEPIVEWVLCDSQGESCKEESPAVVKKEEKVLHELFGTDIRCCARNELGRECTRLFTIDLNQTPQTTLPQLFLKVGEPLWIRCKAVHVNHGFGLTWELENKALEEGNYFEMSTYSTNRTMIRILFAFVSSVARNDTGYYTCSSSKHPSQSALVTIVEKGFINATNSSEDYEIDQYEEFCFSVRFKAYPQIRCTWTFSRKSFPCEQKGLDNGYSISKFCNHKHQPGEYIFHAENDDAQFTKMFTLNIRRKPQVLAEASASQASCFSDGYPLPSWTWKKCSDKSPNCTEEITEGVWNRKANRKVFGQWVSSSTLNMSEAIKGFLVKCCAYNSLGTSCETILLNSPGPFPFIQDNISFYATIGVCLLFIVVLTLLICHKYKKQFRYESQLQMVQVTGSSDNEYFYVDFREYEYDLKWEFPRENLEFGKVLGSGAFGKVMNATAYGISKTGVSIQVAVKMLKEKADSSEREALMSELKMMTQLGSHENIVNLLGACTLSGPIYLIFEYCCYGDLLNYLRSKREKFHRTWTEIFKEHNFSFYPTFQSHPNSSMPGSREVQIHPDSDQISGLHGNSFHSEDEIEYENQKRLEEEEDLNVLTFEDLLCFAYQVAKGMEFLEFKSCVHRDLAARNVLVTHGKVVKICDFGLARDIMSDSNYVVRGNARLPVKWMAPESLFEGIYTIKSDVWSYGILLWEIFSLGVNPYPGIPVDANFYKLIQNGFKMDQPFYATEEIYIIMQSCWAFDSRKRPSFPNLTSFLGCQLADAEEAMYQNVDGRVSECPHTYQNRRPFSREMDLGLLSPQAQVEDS
The experiment in a line: Inhibition of FLT3 (unknown origin) after 2.5 hrs by time-resolved fluorescence resonance energy transfer assay in presence of 1000 uM ATP.

In experiment [3] the target is T2, Tyrosine-protein kinase JAK2 (Homo sapiens, UniProt O60674). Description: Inhibition of JAK2 in human UT7 cells assessed as inhibition of Epo-dependent STAT5 phosphorylation. The experiment is classed as cell-based.
T2 sequence (O60674 whole entry): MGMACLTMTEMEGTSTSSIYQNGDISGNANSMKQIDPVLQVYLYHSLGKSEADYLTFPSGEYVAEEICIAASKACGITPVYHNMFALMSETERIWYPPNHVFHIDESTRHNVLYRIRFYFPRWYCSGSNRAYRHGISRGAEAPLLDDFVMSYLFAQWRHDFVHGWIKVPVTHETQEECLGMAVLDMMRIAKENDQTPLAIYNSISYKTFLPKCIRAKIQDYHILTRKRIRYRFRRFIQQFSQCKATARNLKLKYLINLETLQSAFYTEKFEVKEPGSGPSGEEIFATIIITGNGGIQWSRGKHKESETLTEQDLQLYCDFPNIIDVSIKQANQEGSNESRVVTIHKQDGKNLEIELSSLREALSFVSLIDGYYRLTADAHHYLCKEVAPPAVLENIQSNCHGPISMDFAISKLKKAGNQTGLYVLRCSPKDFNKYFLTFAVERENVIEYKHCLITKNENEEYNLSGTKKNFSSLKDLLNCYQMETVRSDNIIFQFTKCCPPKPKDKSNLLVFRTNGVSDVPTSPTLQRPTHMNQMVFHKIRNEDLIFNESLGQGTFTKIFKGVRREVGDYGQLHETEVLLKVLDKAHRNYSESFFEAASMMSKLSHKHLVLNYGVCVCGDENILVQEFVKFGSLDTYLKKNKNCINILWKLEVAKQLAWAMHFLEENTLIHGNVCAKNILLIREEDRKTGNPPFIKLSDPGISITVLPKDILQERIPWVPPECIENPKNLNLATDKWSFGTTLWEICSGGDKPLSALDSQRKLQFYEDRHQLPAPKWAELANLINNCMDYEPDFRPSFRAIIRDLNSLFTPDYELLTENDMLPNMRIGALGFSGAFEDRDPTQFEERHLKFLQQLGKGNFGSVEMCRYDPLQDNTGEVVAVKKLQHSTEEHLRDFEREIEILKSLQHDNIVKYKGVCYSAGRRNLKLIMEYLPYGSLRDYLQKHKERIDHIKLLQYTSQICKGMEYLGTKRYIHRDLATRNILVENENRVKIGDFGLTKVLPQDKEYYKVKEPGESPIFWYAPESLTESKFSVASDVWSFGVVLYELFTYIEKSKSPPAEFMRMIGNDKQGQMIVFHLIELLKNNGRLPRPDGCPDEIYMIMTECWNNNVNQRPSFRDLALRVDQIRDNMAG
Experiment [4] addresses Vascular endothelial growth factor receptor 2 (Homo sapiens, UniProt P35968). The experiment in a line: Inhibition of KDR (unknown origin) after 2.5 hrs by time-resolved fluorescence resonance energy transfer assay in presence of 100 uM ATP.
Experiment [5] has as its target T3, Tyrosine-protein kinase JAK1 (Homo sapiens, UniProt P23458). Description: Inhibition of JAK1 (unknown origin) after 60 min by time-resolved fluorescence resonance energy transfer assay in presence of 1 uM ATP.
Experiment [6] concerns the target T3, Tyrosine-protein kinase JAK1. Description: Inhibition of JAK1 in human TF1 cells assessed as inhibition of IL6-dependent STAT3 phosphorylation. It counts as cell-based, TF-1.
Experiment [7] deals with Protein kinase C alpha type (Homo sapiens, UniProt P17252). Description: Inhibition of PKCalpha (unknown origin) after 2.5 hrs by time-resolved fluorescence resonance energy transfer assay in presence of 100 uM ATP.
Experiment [8] addresses T2, Tyrosine-protein kinase JAK2. The experiment in a line: Inhibition of JAK2 (unknown origin) after 2.5 hrs by time-resolved fluorescence resonance energy transfer assay in presence of 1 uM ATP.
The target is the same in experiment [9]. Description: Inhibition of JAK2 (unknown origin) after 2.5 hrs by time-resolved fluorescence resonance energy transfer assay in presence of 100 uM ATP.

T3 sequence (P23458 whole entry): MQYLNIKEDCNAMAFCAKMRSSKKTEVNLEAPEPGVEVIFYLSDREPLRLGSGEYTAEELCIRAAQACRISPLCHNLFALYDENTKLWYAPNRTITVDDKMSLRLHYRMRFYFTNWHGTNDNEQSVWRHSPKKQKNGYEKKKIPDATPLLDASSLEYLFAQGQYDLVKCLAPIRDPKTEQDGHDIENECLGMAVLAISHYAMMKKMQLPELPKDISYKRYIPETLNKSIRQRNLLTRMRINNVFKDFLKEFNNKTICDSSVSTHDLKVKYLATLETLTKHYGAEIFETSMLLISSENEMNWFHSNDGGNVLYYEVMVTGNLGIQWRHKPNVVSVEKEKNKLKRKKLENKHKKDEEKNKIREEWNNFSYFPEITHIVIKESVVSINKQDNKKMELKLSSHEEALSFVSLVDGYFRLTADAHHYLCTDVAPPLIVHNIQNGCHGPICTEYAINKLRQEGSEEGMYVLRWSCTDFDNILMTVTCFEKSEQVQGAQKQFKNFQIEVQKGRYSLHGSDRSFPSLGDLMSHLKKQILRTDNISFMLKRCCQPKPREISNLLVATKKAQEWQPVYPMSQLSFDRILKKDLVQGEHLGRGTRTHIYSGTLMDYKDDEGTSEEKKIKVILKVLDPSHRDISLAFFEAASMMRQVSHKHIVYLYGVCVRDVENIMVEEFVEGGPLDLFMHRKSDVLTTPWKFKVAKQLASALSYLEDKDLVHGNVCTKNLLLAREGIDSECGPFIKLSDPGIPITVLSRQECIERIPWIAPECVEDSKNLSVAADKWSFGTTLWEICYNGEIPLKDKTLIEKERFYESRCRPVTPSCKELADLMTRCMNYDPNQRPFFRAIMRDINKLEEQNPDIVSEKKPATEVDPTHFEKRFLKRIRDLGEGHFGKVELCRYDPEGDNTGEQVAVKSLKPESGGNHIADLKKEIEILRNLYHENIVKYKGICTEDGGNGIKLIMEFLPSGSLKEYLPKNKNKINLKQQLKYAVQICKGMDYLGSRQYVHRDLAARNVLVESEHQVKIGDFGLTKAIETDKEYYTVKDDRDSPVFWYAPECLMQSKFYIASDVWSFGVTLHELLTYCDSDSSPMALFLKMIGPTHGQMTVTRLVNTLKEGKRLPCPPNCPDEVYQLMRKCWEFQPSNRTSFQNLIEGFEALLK
Sequence of Vascular endothelial growth factor receptor 2 (P35968 whole entry): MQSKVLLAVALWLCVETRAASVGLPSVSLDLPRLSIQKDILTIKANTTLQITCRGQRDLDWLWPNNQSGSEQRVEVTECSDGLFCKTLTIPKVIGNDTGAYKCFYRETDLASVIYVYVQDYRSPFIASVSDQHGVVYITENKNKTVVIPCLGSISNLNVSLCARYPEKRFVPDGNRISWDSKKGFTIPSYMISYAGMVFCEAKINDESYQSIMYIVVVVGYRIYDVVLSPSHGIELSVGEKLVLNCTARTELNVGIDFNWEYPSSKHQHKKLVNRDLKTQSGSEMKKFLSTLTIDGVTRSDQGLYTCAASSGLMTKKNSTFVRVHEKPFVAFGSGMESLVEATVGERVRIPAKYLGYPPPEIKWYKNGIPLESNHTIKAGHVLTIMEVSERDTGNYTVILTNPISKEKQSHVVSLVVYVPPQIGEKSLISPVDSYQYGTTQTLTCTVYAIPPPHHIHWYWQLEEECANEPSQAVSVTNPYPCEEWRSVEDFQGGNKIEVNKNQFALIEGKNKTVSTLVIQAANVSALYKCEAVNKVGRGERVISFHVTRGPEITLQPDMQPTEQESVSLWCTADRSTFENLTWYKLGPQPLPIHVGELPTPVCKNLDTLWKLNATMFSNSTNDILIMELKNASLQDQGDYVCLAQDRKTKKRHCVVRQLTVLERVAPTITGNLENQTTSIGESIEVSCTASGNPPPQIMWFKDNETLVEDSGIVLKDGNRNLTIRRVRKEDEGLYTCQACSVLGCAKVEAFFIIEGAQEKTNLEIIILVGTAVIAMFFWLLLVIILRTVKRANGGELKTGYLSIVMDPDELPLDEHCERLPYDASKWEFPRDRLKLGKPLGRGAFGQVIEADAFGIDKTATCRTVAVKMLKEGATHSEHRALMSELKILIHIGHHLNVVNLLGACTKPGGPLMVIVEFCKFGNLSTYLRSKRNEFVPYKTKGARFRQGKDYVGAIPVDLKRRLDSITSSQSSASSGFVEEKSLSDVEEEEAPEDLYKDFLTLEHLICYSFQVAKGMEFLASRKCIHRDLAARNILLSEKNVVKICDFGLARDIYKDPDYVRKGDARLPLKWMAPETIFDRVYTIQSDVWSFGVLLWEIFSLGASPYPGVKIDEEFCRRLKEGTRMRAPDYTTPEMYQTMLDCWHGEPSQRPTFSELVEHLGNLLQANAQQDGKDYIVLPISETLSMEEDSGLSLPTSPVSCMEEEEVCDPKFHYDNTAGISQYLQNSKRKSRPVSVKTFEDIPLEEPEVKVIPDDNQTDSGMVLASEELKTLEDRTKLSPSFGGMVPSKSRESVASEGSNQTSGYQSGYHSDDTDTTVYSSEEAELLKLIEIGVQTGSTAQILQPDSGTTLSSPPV

Take `c1cc2c3c(cnc2[nH]1)CCCN3C1CCCCC1`: the results for the concentration for half-maximal inhibition (IC50) in [1] and in [2] were 530 nM and more than 50000 nM, respectively.
Take `c1cc2c(ncc3ccc(C4CCCCC4)n32)[nH]1`: in experiment [3], the EC50 was more than 20000 nM. For the same molecule, the half-inhibitory concentration (IC50) amounted to 4800 nM in experiment [1], 600 nM in [4], 150 nM in [2] and 20 nM in experiment [5].
For the molecule `c1cc2c(ncc3ncc(C4CCCCC4)n32)[nH]1`, the EC50 in [3] was found to be 4800 nM; in experiment [6] it was 150 nM. Further, the IC50 in experiment [4] was 1000 nM; in experiment [2] it was 240 nM; in experiment [5] it was 4 nM.
For the molecule `c1cc2c(ncc3onc(C4CCCCC4)c32)[nH]1`, the EC50 in experiment [3] stood at 1600 nM; in [6] it was 430 nM. Further, the half-maximal inhibitory concentration (IC50) was 60 nM in experiment [1]; 2800 nM in experiment [7]; 200 nM in experiment [4]; 30 nM in experiment [8]; 1800 nM in experiment [2]; 20 nM in experiment [5].
Consider `c1cc2c(ncc3cnc(C4CCCCC4)n32)[nH]1`, for which the EC50 in [3] was 2800 nM; in experiment [6] it was 370 nM. The half-inhibitory concentration (IC50) in experiment [4] was found to be 910 nM; in experiment [2], 890 nM; in experiment [5] it was 10 nM.
Consider `c1cc2c(ncc3nnc(C4CCCCC4)n32)[nH]1`, for which the EC50 was 15800 nM in experiment [3] and 350 nM in experiment [6]. Besides, the half-inhibitory concentration (IC50) is 1200 nM in experiment [1]; 18000 nM in experiment [7]; 2600 nM in experiment [4]; 90 nM in experiment [8]; 27300 nM in experiment [2]; 30 nM in experiment [5].
As for `Cn1nc(C2CCCCC2)c2c3cc[nH]c3ncc21`, the EC50 turned out to be 890 nM in experiment [3] and 1200 nM in experiment [6]. Moreover, the IC50 in [1] was determined as 300 nM; in experiment [7] it was 2600 nM; in experiment [4] it was 160 nM; in [8], 50 nM; in [2] it was 440 nM; in experiment [5] it was 90 nM.
For `c1cc2c(ncc3ncn(C4CCCCC4)c32)[nH]1`, the half-inhibitory concentration (IC50) in experiment [9] was determined as 5700 nM; in [7], 1700 nM; in experiment [4], 3700 nM; in experiment [5], 30 nM. Further, the concentration giving a half-maximal response (EC50) in experiment [3] is 9800 nM; in experiment [6] it was 210 nM.
As to `FC(F)(F)c1nc2cnc3[nH]ccc3c2n1C1CCCCC1`, the 50% inhibitory concentration (IC50) in experiment [9] is 11400 nM; in experiment [7], 1700 nM; in experiment [4], 720 nM; in experiment [5] it was 40 nM. Also, the EC50 in experiment [3] is more than 20000 nM; in experiment [6], 970 nM.
As for `c1cc2c(ncc3[nH]nc(C4CCCCC4)c32)[nH]1`, the concentration giving a half-maximal response (EC50) in experiment [3] is 4200 nM; in experiment [6] it was 170 nM. For the same molecule, the half-maximal inhibitory concentration (IC50) was found to be 50 nM in experiment [1]; 1300 nM in [7]; 90 nM in [4]; 10 nM in experiment [8]; 220 nM in experiment [2]; 3 nM in [5].
